Experimental findings from patent publication US20040023922A1, “Lipids for modulating immune response” (priority 2000, published 2004) are described below.

One experiment has as its system mesenteric lymph nodes. The experiment is classed as in vivo, mice.
A further experiment has as its system Female Balb/c mice. The experiment in a line: Adjuvanticity of lipids: serum anti-KLH IgA, IgG, IgM ELISA (Example 7). The experiment is classed as in vivo. Particulars: for Day 7 Results IgA, score as multiples of the control response / Day 7 Results IgG, score as multiples of the control response / Day 7 Results IgM, score as multiples of the control response: serum day 7 after booster; for Day 7 Results IgA, score as multiples of the control response: 5 μl lipid + 45 μl saline + 50 μl KLH (2 mg/ml), week 0 and week 2; for Day 7 Results IgA, score as multiples of the control response / Day 7 Results IgG, score as multiples of the control response / Day 7 Results IgM, score as multiples of the control response / Day 21 Results IgA, score as multiples of the control response / Day 21 Results IgG, score as multiples of the control response / Day 21 Results IgM, score as multiples of the control response: control KLH + Saline = 1; for Day 21 Results IgA, score as multiples of the control response / Day 21 Results IgG, score as multiples of the control response / Day 21 Results IgM, score as multiples of the control response: serum day 21 after booster; for Ranking Total: sum of the six IgA, IgG, IgM scores of day 7 and day 21, control KLH + Saline = 6. As for the experimental part:
The objective of this study was to investigate the adjuvanticity of 19 different lipids.
Female Balb/c mice, 6-8 weeks and weighing about 20-22 gms were used and maintained on a normal mouse diet throughout the study.
There were 22 groups of mice marked alphabetically from A-V. Group A (8 mice) was the negative control (KLH+Saline), Group B (8 mice) was the positive control (KLH+IFA). Groups C-V were the experimental groups containing 6 mice each. 100 μl of antigen preparation comprising of 5 μl lipid+45 μl saline+50 μl (2 mg/ml KLH) was administered to 20 groups of 6 mice each, on week 0 followed by a boost on week 2.
On day 7 and day 21 after the booster dose, the mice were tail bled, the serum separated, aliquoted and stored at 4° C.
The specific anti-KLH IgG and IgM antibody content of each individual serum sample was determined in an established ELISA assay and standardised against a positive control antiserum obtained by hyperimmunisation of mice with KLH (100 μg) in Freund's incomplete adjuvant. Plates were coated with KLH at 2 μg/ml and incubated with four twofold dilutions of samples (100 μl) at 37° C. for 2 hours. The initial dilution of serum samples was 1:50 for IgA assay and 1:100 for IgG and IgM assays. […] IgA and IgM were used at 1:1000 and IgG at 1:2000 for 2 hours at 37° C. The results were expressed as antibody units calculated from the standard curve obtained from pooled immune mouse serum given an arbitrary antibody value of 100,000 IgA units/ml and 1×10^6 IgG and IgM units/ml. The standard curve was diluted from 1:100 to 1:3200 for IgA, 1:4000 to 1:256,000 for IgG and 1:1000 to 1:32000 for IgM samples. The value for each sample dilution falling on standard curve was calculated and the mean taken as the value for the sample.
Results are given in the form of histograms (FIGS. 9 to 14), plotting the Ig response (units/ml) against the trial grouping. […] The number signifies multiples of the control response.

Values joined by “and” are separate entries in the source; they are usually repeats but may differ in a detail not shown here. Equal entries are not always repeated. Where two headings read alike, the source gives them in different places.

Take `CC/C=C\C/C=C\C/C=C\CCCCCCCC(=O)OCC(COC(=O)CCCCCCC/C=C\C/C=C\C/C=C\CC)OC(=O)CCCCCCC/C=C\C/C=C\C/C=C\CC` [Trilinolenin]: in the experiment on mesenteric lymph nodes (40 μg on SiO2 particles in 0.2 ml PBS per mouse per day intragastrically, days 1-3, KLH + cholera toxin days 7 and 14, killed day 21, control KLH+CT), the “Proliferative cellular response of mesenteric lymph nodes to KLH compared to control (FIG. 15)” value was “strong proliferative response”.

In the case of `CCCCCCCC/C=C\CCCCCCCC(=O)OC[C@H](COP(=O)([O-])OCC[N+](C)(C)C)OC(=O)CCCCCCC/C=C\CCCCCCCC` [Phosphatidycholine, dioleoyl, Phosphatidylcholine, dioleoyl], the “Proliferative cellular response of mesenteric lymph nodes to KLH compared to control (FIG. 15)” value with mesenteric lymph nodes (mouse, in vivo) was “strong proliferative response”.

As to `CCCCCCCCCCCCCCCCC(=O)OC[C@H](COP(=O)([O-])OCC[N+](C)(C)C)OC(=O)CCCCCCCCCCCCCCCC` [PCH, L-α-Phosphatidylcholine, diheptadecanoyl], in the experiment on Female Balb/c mice, the “Day 7 Results IgA, score as multiples of the control response” value (“Day 7 Results IgA, score as multiples” below) was 18; the “Day 7 Results IgG, score as multiples of the control response” value (shortened to “Day 7 Results IgG, score as multiples”) worked out at 10; the “Day 7 Results IgM, score as multiples of the control response” value (“Day 7 Results IgM, score as multiples” for short) was 1; the “Day 21 Results IgA, score as multiples of the control response” value (“Day 21 Results IgA, score as multiples” below) turned out to be 2. Also, in the experiment on Female Balb/c mice, the “Day 21 Results IgG, score as multiples of the control response” value (“Day 21 Results IgG, score as multiples” below) stood at 10; the “Day 21 Results IgM, score as multiples of the control response” value (“Day 21 Results IgM, score as multiples” below) turned out to be 2; the “Ranking Total” value is recorded as 43.

On to `CCCCCCCCCCCCCC(=O)OCC(COP(=O)([O-])OCC[N+](C)(C)C)OC(=O)CCCCCCCCCCCCC` (racemic) [PCM, DL-α-Phosphatidylcholine, dimyristoyl], for which, in the experiment with Female Balb/c mice, the “Day 7 Results IgA, score as multiples” value came out at 4; the “Day 7 Results IgG, score as multiples” value came to 2; the “Day 7 Results IgM, score as multiples” value was 1; the “Day 21 Results IgA, score as multiples” value was determined as 1. Further, in the experiment with Female Balb/c mice, the “Day 21 Results IgG, score as multiples” value turned out to be 3; the “Day 21 Results IgM, score as multiples” value is 1; the “Ranking Total” value was determined as 12.

Take `CCCCCCCCCCCCCCCCCC(=O)OCC(COC(=O)CCCCCCCCCCCCCCC)OC(=O)CCCCCCCCCCCCCCCCC` (racemic) [DSP, 1,2 Distearoyl-3-palmitoyl-rac-glycerol]: in the experiment on Female Balb/c mice, the “Day 7 Results IgA, score as multiples” value stood at 15; the “Day 7 Results IgG, score as multiples” value amounted to 7; the “Day 7 Results IgM, score as multiples” value is listed as 5; the “Day 21 Results IgA, score as multiples” value was determined as 3. Moreover, in the experiment with Female Balb/c mice, the “Day 21 Results IgG, score as multiples” value came out at 8; the “Day 21 Results IgM, score as multiples” value was 2; the “Ranking Total” value is 39 and 40.

Turning to `CCCCCCCCCCCCCCCCC(=O)OC[C@H](COP(=O)(O)OCCN)OC(=O)CCCCCCCCCCCCCCCC` [PEH, L-α-Phosphatidylethanolamine, diheptadecanoyl], in the experiment on Female Balb/c mice, the “Day 7 Results IgA, score as multiples” value stood at 4; the “Day 7 Results IgG, score as multiples” value came to 12; the “Day 7 Results IgM, score as multiples” value is listed as 2; the “Day 21 Results IgA, score as multiples” value came out at 2. Besides, in the experiment on Female Balb/c mice, the “Day 21 Results IgG, score as multiples” value turned out to be 7; the “Day 21 Results IgM, score as multiples” value worked out at 1; the “Ranking Total” value was 28.

Consider `CCCCCCCCCCCCCCCC(=O)N[C@@H](CO[C@@H]1O[C@H](CO)[C@@H](O)[C@H](O)[C@H]1O)[C@H](O)CCCCCCCCCCCCCCC` [PC, N-Palmitoyl dihydroglucocerebroside], for which, in the experiment on Female Balb/c mice, the “Day 7 Results IgA, score as multiples” value was found to be 33; the “Day 7 Results IgG, score as multiples” value was found to be 2; the “Day 7 Results IgM, score as multiples” value was determined as 3; the “Day 21 Results IgA, score as multiples” value was determined as 3. In the experiment on Female Balb/c mice, the “Day 21 Results IgG, score as multiples” value was 12; the “Day 21 Results IgM, score as multiples” value turned out to be 3; the “Ranking Total” value came out at 56.
